Results taken from US4426524A, “Heterocyclic substituted benzyl alcohol, insecticidal ester derivatives, and intermediates” (priority 1982, dated 1984).

How the values were obtained:
tobacco budworm = assay: Topical application, tobacco budworm; type: in vivo, Heliothis virescens; details: TBW
Description: (§1) Topical Application: The compounds of this invention were tested for insecticidal activity against various insect species selected from southern armyworm (Spodoptera eridania), Mexican bean beetle, (Epilachna varivestis), milkweed bug (Oncopeltus fasciatus), and cabbage looper (Tricoplusia ni) by applying to the second or third dorsal thoracic segment of each larvae a one microliter droplet containing 5 mg/mL of test compound in acetone (5000 ng/insect). The test was allowed to stand 24 hours after application and was then read to determine the percent kill.
(§2) To determine the LD50 of the compounds, the topical application test was repeated by applying various amounts of toxicant. Also included among the species tested against for this determination were tobacco budworm (Heliothis virescens), beet armyworm (Spodoptera exigua), and boll weevil (Anthonomus grandis).

pea aphid = assay: Foliar application, pea aphid; type: in vivo; details: Acyrthosiphon pisum, PA, foliar, 48 hours, read-out: Foliar % Kill (ppm)
Description: (§3) Foliar Application: The activity of some of the compounds of the invention against various test species selected from pea aphid (Acyrthosiphon pisum), twospotted spider mite (Tetranychus urticae), southern armyworm (Spodoptera eridania), Mexican bean beetle (Epilachna varivestis), and cabbage looper (Tricoplusia ni) was determined by foliar application of the test compound. The test materials were formulated as aqueous solutions containing 10% acetone and 0.25% acetylphenoxypolyethoxyethanol. Activity against pea aphid was determined on English fava bean plants the leaves of which were sprayed to runoff with various concentrations of test solution prior to infestation with adult aphids. Activity against twospotted spider mite was evaluated on pinto bean plants whose leaves were sprayed to runoff with various concentrations of test solution after infestation with adult mites. Activity against the remaining species was evaluated on pinto bean plants whose leaves were sprayed to runoff with various concentrations of test solution before infestation with the appropriate immature insects. Mortality was read approximately 48 hours after treatment.

cabbage looper [1] = assay: Foliar application, cabbage looper; type: in vivo, Tricoplusia ni; details: Trichoplusia ni, CL, 48 hours, read-out: Foliar % Kill (ppm)
Description: as §3

southern armyworm [2] = assay: Topical application, southern armyworm; type: in vivo, Spodoptera eridania; details: SAW; for Topical % Kill @ 5000 ng/insect: 24 hours
Description: as §1, §2

cabbage looper [3] = assay: Topical application, cabbage looper; type: in vivo, Tricoplusia ni; details: CL
Description: as §1, §2

milkweed bug = assay: Topical application, milkweed bug; type: in vivo, Oncopeltus fasciatus; details: MWB; for Topical % Kill @ 5000 ng/insect: 24 hours
Description: as §1, §2

Mexican bean beetle [4] = assay: Topical application, Mexican bean beetle; type: in vivo, Epilachna varivestis; details: MBB; for Topical % Kill @ 5000 ng/insect: 24 hours
Description: as §1, §2

Mexican bean beetle [5] = assay: Foliar application, Mexican bean beetle; type: in vivo; details: Epilachna varivestis, MBB, foliar, 48 hours, read-out: Foliar % Kill (ppm)
Description: as §3

twospotted spider mite = assay: Foliar application, twospotted spider mite; type: in vivo; details: Tetranychus urticae, TSM, foliar, 48 hours, read-out: Foliar % Kill (ppm)
Description: as §3

southern armyworm [6] = assay: Foliar application, southern armyworm; type: in vivo; details: Spodoptera eridania, SAW, foliar, 48 hours, read-out: Foliar % Kill (ppm)
Description: as §3

boll weevil = assay: Topical application, boll weevil; type: in vivo, Anthonomus grandis; details: BW
Description: as §1, §2

beet armyworm = assay: Topical application, beet armyworm; type: in vivo, Spodoptera exigua; details: BAW
Description: as §1, §2

Cc1c(COC(=O)[C@@H]2[C@H](C=C(Cl)Cl)C2(C)C)cccc1-c1cccs1 [h, [2-methyl-3-(2-thienyl)phenyl]-methyl 1R-cis-3-(2,2-dichloroethenyl)-2,2-dimethylcyclopropanecarboxylate]
Topical LD50 (tobacco budworm): 38 ng/insect
mortality at 500 ppm (pea aphid): 100%
mortality at 16 ppm (cabbage looper [1]; 16 ppm): 90%
Topical LD50 (southern armyworm [2]): 22 ng/insect
Topical LD50 (cabbage looper [3]): 136 ng/insect
Topical LD50 (milkweed bug): 64 ng/insect
Topical % Kill @ 5000 ng/insect (milkweed bug): 100%
Topical LD50 (Mexican bean beetle [4]): 9 ng/insect
Topical % Kill @ 5000 ng/insect (Mexican bean beetle [4]): 100%
mortality at 16 ppm (Mexican bean beetle [5]; 16 ppm): 95%
mortality at 500 ppm (twospotted spider mite): 100%
mortality at 6.5 ppm (southern armyworm [6]; 6.5 ppm): 100%

Cc1c(COC(=O)[C@H]2[C@@H](C=C(Cl)Cl)C2(C)C)cccc1-c1ccco1 (relative stereo) [n, [3-(2-furanyl)-2-methylphenyl]methyl cis-3-(2,2-dichloroethenyl)-2,2-dimethylcyclopropanecarboxylate]
Topical LD50 (tobacco budworm): 92 ng/insect
mortality at 64 ppm (pea aphid; 64 ppm): 100%
Topical LD50 (southern armyworm [2]): 73 ng/insect
Topical LD50 (cabbage looper [3]): 341 ng/insect
Topical LD50 (milkweed bug): 1140 ng/insect
Topical % Kill @ 5000 ng/insect (milkweed bug): 100%
Topical LD50 (Mexican bean beetle [4]): 72 ng/insect
Topical % Kill @ 5000 ng/insect (Mexican bean beetle [4]): 100%
mortality at 64 ppm (Mexican bean beetle [5]): 40%
mortality at 16 ppm (twospotted spider mite): 0%
mortality at 500 ppm (southern armyworm [6]): 100%

Cc1c(COC(=O)[C@H]2[C@H](C=C(Cl)Cl)C2(C)C)cccc1-c1cccs1 (relative stereo) [f, [2-methyl-3-(2-thienyl)phenyl]methyl trans-3-(2,2-dichloroethenyl)-2,2-dimethylcyclopropanecarboxylate]
mortality at 512 ppm (pea aphid): 100%
mortality at 120 ppm (cabbage looper [1]; 120 ppm): 100%
Topical LD50 (southern armyworm [2]): 155 ng/insect
Topical LD50 (milkweed bug): 238 ng/insect
Topical % Kill @ 5000 ng/insect (milkweed bug): 100%
mortality at 512 ppm (Mexican bean beetle [5]): 100%
mortality at 512 ppm (twospotted spider mite; 512 ppm): 71%
mortality at 512 ppm (southern armyworm [6]): 100%

Cc1c(COC(=O)[C@H]2[C@@H](C=C(Cl)Cl)C2(C)C)cccc1-c1cccs1 (relative stereo) [g, [2-methyl-3-(2-thienyl)phenyl]methyl cis-3-(2,2-dichloroethenyl)-2,2-dimethylcyclopropanecarboxylate]
Topical LD50 (tobacco budworm): 107 ng/insect
mortality at 512 ppm (pea aphid): 100%
mortality at 80 ppm (cabbage looper [1]; 80 ppm): 100%
Topical LD50 (southern armyworm [2]): 51 ng/insect
Topical % Kill @ 5000 ng/insect (southern armyworm [2]): 100%
Topical LD50 (cabbage looper [3]): 0.5 ng/insect
Topical LD50 (milkweed bug): 234 ng/insect
Topical % Kill @ 5000 ng/insect (milkweed bug): 100%
Topical LD50 (Mexican bean beetle [4]): 8 ng/insect
mortality at 512 ppm (Mexican bean beetle [5]): 100%
mortality at 64 ppm (twospotted spider mite; 64 ppm): 0%
mortality at 512 ppm (southern armyworm [6]): 100%
Topical LD50 (boll weevil): 21 ng/insect

Cc1c(COC(=O)[C@H]2[C@@H](C=C(Br)Br)C2(C)C)cccc1-c1cccs1 (relative stereo) [i, [2-methyl-3-(2-thienyl)phenyl]-methyl cis-3-(2,2-dibromoethenyl)-2,2-dimethylcyclopropanecarboxylate]
Topical LD50 (tobacco budworm): 177 ng/insect
mortality at 500 ppm (pea aphid): 100%
mortality at 32 ppm (cabbage looper [1]; 32 ppm): 70%
Topical LD50 (southern armyworm [2]): 55 ng/insect
Topical % Kill @ 5000 ng/insect (southern armyworm [2]): 100%
Topical LD50 (cabbage looper [3]): 371 ng/insect
Topical LD50 (milkweed bug): 132 ng/insect
Topical % Kill @ 5000 ng/insect (milkweed bug): 100%
Topical LD50 (Mexican bean beetle [4]): 20 ng/insect
Topical % Kill @ 5000 ng/insect (Mexican bean beetle [4]): 100%
mortality at 32 ppm (Mexican bean beetle [5]; 32 ppm): 90%
mortality at 500 ppm (twospotted spider mite): 90%
mortality at 16 ppm (southern armyworm [6]; 16 ppm): 95%

CC1(C)[C@H](C=C(Cl)Cl)[C@@H]1C(=O)OCc1cccc(-c2ccsc2)c1 (relative stereo) [d, 3-(3-thienyl)phenylmethyl cis-3-(2,2-dichloroethenyl)-2,2-dimethylcyclopropanecarboxylate]
mortality at 500 ppm (pea aphid): 100%
Topical LD50 (beet armyworm): 3010 ng/insect
Topical LD50 (southern armyworm [2]): 57 ng/insect
Topical % Kill @ 5000 ng/insect (southern armyworm [2]): 100%
Topical LD50 (cabbage looper [3]): 2408 ng/insect
Topical LD50 (milkweed bug): 1137 ng/insect
Topical % Kill @ 5000 ng/insect (milkweed bug): 95%
Topical LD50 (Mexican bean beetle [4]): 73 ng/insect
Topical % Kill @ 5000 ng/insect (Mexican bean beetle [4]): 100%
mortality at 500 ppm (twospotted spider mite): 100%

Cc1c(COC(=O)[C@H]2[C@@H](C=C(Cl)C(F)(F)F)C2(C)C)cccc1-c1ccco1 (relative stereo) [m, [3-(2-furanyl)-2-methylphenyl]methyl cis-3-(2-chloro-3,3,3-trifluoro-1-propenyl)-2,2-dimethylcyclopropanecarboxylate]
Topical LD50 (tobacco budworm): 46 ng/insect
mortality at 500 ppm (pea aphid): 100%
Topical LD50 (southern armyworm [2]): 56 ng/insect
Topical % Kill @ 5000 ng/insect (southern armyworm [2]): 100%
Topical LD50 (cabbage looper [3]): 149 ng/insect
Topical LD50 (milkweed bug): 286 ng/insect
Topical % Kill @ 5000 ng/insect (milkweed bug): 100%
Topical LD50 (Mexican bean beetle [4]): 43 ng/insect
Topical % Kill @ 5000 ng/insect (Mexican bean beetle [4]): 100%
mortality at 64 ppm (Mexican bean beetle [5]): 75%
mortality at 16 ppm (twospotted spider mite): 0%
mortality at 500 ppm (southern armyworm [6]): 100%

Cc1c(COC(=O)C2C(C=C(Cl)Cl)C2(C)C)cccc1-c1ccco1 (mixture of isomers) [o, [3-(2-furanyl)-2-methylphenyl]methyl cis,trans-3-(2,2-dichloroethenyl)-2,2-dimethylcyclopropanecarboxylate]
Topical LD50 (tobacco budworm): 45 ng/insect
mortality at 500 ppm (pea aphid): 100%
Topical LD50 (southern armyworm [2]): 146 ng/insect
Topical % Kill @ 5000 ng/insect (southern armyworm [2]): 100%
Topical LD50 (cabbage looper [3]): 536 ng/insect
Topical LD50 (milkweed bug): 450 ng/insect
Topical % Kill @ 5000 ng/insect (milkweed bug): 100%
Topical LD50 (Mexican bean beetle [4]): 86 ng/insect
Topical % Kill @ 5000 ng/insect (Mexican bean beetle [4]): 100%
mortality at 64 ppm (Mexican bean beetle [5]): 45%
mortality at 16 ppm (twospotted spider mite): 0%
mortality at 500 ppm (southern armyworm [6]): 100%
